Assay results: PubChem BioAssay AID1845196 (Molecular Pharmacology Branch, DTP, NCI, 2023)
pIC50: −log10 of the molar value.

Tested on: 292921-168-R tumor spheroid viability
Assay: Anticancer human tumor 292921-168-R patient-derived pancreatic carcinoma cell line growth inhibition
Details: spheroids with HUVEC and MSC; for pIC50: curve of first compound; for viability, T/C: stronger effect = lower value; active = viability on the fitted dose curve at most 10% of control; inactive = the rest
Summary of the method: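 Complex spheroids of malignant cells with endothelial cells and mesenchymal stem cells; agents alone or combined, from near clinical Cmax (or 10 microM if unknown) down in half-log steps, 0.25% DMSO final.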

[1] = second compound 30 pM, first compound 0.00949 µM
[2] = second compound 30 pM, first compound 0.03 µM
[3] = second compound 30 pM, first compound 0.0949 µM
[4] = second compound 30 pM, first compound 0.3 µM
[5] = second compound 30 pM, first compound 0.949 µM
[6] = second compound 30 pM, first compound 3 µM
[7] = second compound 94.9 pM, first compound 0.00949 µM
[8] = second compound 94.9 pM, first compound 0.03 µM
[9] = second compound 94.9 pM, first compound 0.0949 µM
[10] = second compound 94.9 pM, first compound 0.3 µM
[11] = second compound 94.9 pM, first compound 0.949 µM
[12] = second compound 94.9 pM, first compound 3 µM
[13] = second compound 0.0003 µM, first compound 0.00949 µM
[14] = second compound 0.0003 µM, first compound 0.03 µM
[15] = second compound 0.0003 µM, first compound 0.0949 µM
[16] = second compound 0.0003 µM, first compound 0.3 µM
[17] = second compound 0.0003 µM, first compound 0.949 µM
[18] = second compound 0.0003 µM, first compound 3 µM
[19] = second compound 0.000949 µM, first compound 0.00949 µM
[20] = second compound 0.000949 µM, first compound 0.03 µM
[21] = second compound 0.000949 µM, first compound 0.0949 µM
[22] = second compound 0.000949 µM, first compound 0.3 µM
[23] = second compound 0.000949 µM, first compound 0.949 µM
[24] = second compound 0.000949 µM, first compound 3 µM
[25] = second compound 0.003 µM, first compound 0.00949 µM
[26] = second compound 0.003 µM, first compound 0.03 µM
[27] = second compound 0.003 µM, first compound 0.0949 µM
[28] = second compound 0.003 µM, first compound 0.3 µM
[29] = second compound 0.003 µM, first compound 0.949 µM
[30] = second compound 0.003 µM, first compound 3 µM
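Note: spheroids exposed to compounds for 7 days.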

CNCc1ccc(-c2cc(-c3nc(-c4ccc(S(=O)(=O)C(C)C)cc4)cnc3N)on2)cc1 + COc1cc2c(cc1O)CCNC21CSC2c3c(OC(C)=O)c(C)c4c(c3C(COC1=O)N1C(O)C3Cc5cc(C)c(OC)c(O)c5C(C21)N3C)OCO4
inactive: viability, T/C [1] 96.9% | viability, T/C [2] 104% | viability, T/C [3] 71.5% | viability, T/C [4] 36.8% | viability, T/C [5] 15.8% | viability, T/C [6] 13.2% | viability, T/C [7] 100% | viability, T/C [8] 96.4% | viability, T/C [9] 69% | viability, T/C [10] 19% | viability, T/C [11] 13.2% | viability, T/C [12] 8.91% | viability, T/C [13] 45.9% | viability, T/C [14] 50.7% | viability, T/C [15] 28.6% | viability, T/C [16] 14.5% | viability, T/C [17] 10% | viability, T/C [18] 8.68%
active: viability, T/C [19] 2.7% | viability, T/C [20] 5.05% | viability, T/C [21] 4.26% | viability, T/C [22] 4.15% | viability, T/C [23] 3.65% | viability, T/C [24] 0.18% | viability, T/C [25] 0.18% | viability, T/C [26] 0.17% | viability, T/C [27] 0.15% | viability, T/C [28] 0.2% | viability, T/C [29] 0.24% | viability, T/C [30] 0.16%
> 8.02: pIC50 (second compound 0.0003 µM) | pIC50 (second compound 0.000949 µM) | pIC50 (second compound 0.003 µM)
6.71: pIC50 (second compound 30 pM)
6.83: pIC50 (second compound 94.9 pM)

Cc1sc2c(c1C)C(c1ccc(Cl)cc1)=NC(CC(=O)Nc1ccc(O)cc1)c1nnc(C)n1-2 (stereo not given) + COc1cc2c(cc1O)CCNC21CSC2c3c(OC(C)=O)c(C)c4c(c3C(COC1=O)N1C(O)C3Cc5cc(C)c(OC)c(O)c5C(C21)N3C)OCO4
5.76: pIC50 (second compound 94.9 pM)
inactive: viability, T/C [1] 110% | viability, T/C [2] 120% | viability, T/C [3] 118% | viability, T/C [4] 136% | viability, T/C [5] 63.5% | viability, T/C [6] 36.5% | viability, T/C [7] 106% | viability, T/C [8] 110% | viability, T/C [9] 118% | viability, T/C [10] 110% | viability, T/C [11] 79.2% | viability, T/C [12] 22.5% | viability, T/C [13] 53.8% | viability, T/C [14] 52.6% | viability, T/C [15] 63.2% | viability, T/C [16] 50.7%
active: viability, T/C [17] 4.2% | viability, T/C [18] 0.5% | viability, T/C [19] 1.64% | viability, T/C [20] 1.61% | viability, T/C [21] 0.91% | viability, T/C [22] 0.26% | viability, T/C [23] 0.07% | viability, T/C [24] 0.13% | viability, T/C [25] 0.18% | viability, T/C [26] 0.16% | viability, T/C [27] 0.16% | viability, T/C [28] 0.15% | viability, T/C [29] 0.25% | viability, T/C [30] 0.58%
> 8.02: pIC50 (second compound 0.000949 µM) | pIC50 (second compound 0.003 µM)
6.51: pIC50 (second compound 0.0003 µM)
5.77: pIC50 (second compound 30 pM)
